This experiment has as its system influenza virus (A/Aichi/2/68). Put plainly: Inhibition of Influenza Virus Adsorbtion to Erythrocytes (hemagglutination of resialylated human erythrocytes). The conditions noted are these: relative to Me αDNeuAc = 1.0 (Table 8).

Description: The heptasaccharides can be evaluated as inhibitors of the influenza virus hemagglutination of the resialylated human erythrocytes.
^a Inhibition of influenza virus (A/Aichi/2/68) to resialylated

Take `COC(=O)CCCCCOC1OC(CO)C(O)C(OC2OC(CO)C(OC3OC(COC4(C(=O)O)CC(O)C(NC(C)=O)C(C(O)C(O)CO)O4)C(O)C(O)C3O)C(O)C2NC(C)=O)C1OC1OC(CO)C(OC2OC(COC3(C(=O)O)CC(O)C(NC(C)=O)C(C(O)C(O)CO)O3)C(O)C(O)C2O)C(O)C1NC(C)=O` [Example 27, 5-(Methoxycarbonyl)pentyl 2,3-di-O-{5-acetamido-3,5-dideoxy-D-glycero-D-galacto-2-nanulopyranosylonic acid(2→6)-β-D-galactopyranosyl(1→4)-2-acetamido-2-deoxy-β-D-glucopyranosyl}-β-D-galactopyranoside]: the “Relative Potency” value was 7.2.
For the molecule `COC(=O)CCCCCOC1OC(CO)C(OC2OC(CO)C(OC3OC(COC4(C(=O)O)CC(O)C(NC(C)=O)C(C(O)C(O)CO)O4)C(O)C(O)C3O)C(O)C2NC(C)=O)C(O)C1OC1OC(CO)C(OC2OC(COC3(C(=O)O)CC(O)C(NC(C)=O)C(C(O)C(O)CO)O3)C(O)C(O)C2O)C(O)C1NC(C)=O` [Example 28, 5-(Methoxycarbonyl)pentyl 2,4-di-O-{5-acetamido-3,5-dideoxy-D-glycero-D-galacto-2-nanulopyranosylonic acid(2→6)-β-D-galactopyranosyl(1→4)-2--acetamido-2-deoxy-β-D-glucopyranosyl}-β-D-galactopyranoside], the “Relative Potency” value turned out to be 1.5.
To `COC(=O)CCCCCOC1OC(CO)C(OC2OC(CO)C(OC3OC(CO)C(O)C(O)C3O)C(O)C2NC(C)=O)C(O)C1OC1OC(CO)C(OC2OC(COC3(C(=O)O)CC(O)C(NC(C)=O)C(C(O)C(O)CO)O3)C(O)C(O)C2O)C(O)C1NC(C)=O` [Example 28A, 5-(methoxycarbonyl)pentyl 2-O-[5-acetamido-3,5-dideoxy-D-glycero-D-galactononulopyranosylonic acid (2→6)-β-D-galactopyranosyl-(1→4)-2-acetamido-2-deoxy-D-glycopyranosyl]-4-O-[β-D-galactopyranosyl-(1→4)-2-acetamido-2-deoxy-D-glucopyranosyl]-β-D-galactopyranoside] belongs 1.9; to `COC(=O)CCCCCOC1OC(COC2OC(CO)C(OC3OC(COC4(C(=O)O)CC(O)C(NC(C)=O)C(C(O)C(O)CO)O4)C(O)C(O)C3O)C(O)C2NC(C)=O)C(O)C(OC2OC(CO)C(OC3OC(COC4(C(=O)O)CC(O)C(NC(C)=O)C(C(O)C(O)CO)O4)C(O)C(O)C3O)C(O)C2NC(C)=O)C1O` [Example 30, 5-(Methoxycarbonyl)pentyl 3,6-di-O-{5-acetamido-3,5-dideoxy-D-glycero-D-galacto-2-nanulopyranosylonic acid(2→6)-β-galactopyranosyl(1→4)-2-acetamido-2-deoxy-β-D-glucopyranosyl}-β-D-galactopyranoside], 8.4.

Values taken from US5220008A, “Oligosaccharide inhibitors for influenza virus” (priority 1991, dated 1993).
